“And” between values parts separate entries of the source, which are not always exact repeats. Equal values may be shown once.
How the values were obtained:
Type in all cases: cell-based
[1] = system: SARS-CoV-2 Omicron (B.1.1.529); experiment: microbe, parasite or virus in culture
[2] = system: SARS-CoV-2 Delta (B.1.617.2); experiment: microbe, parasite or virus in culture
[3] = system: SARS-CoV-2 Delta (B.1.617.2); experiment: CPE assay, neutral red, Vero E6 cells with 2 μM CP-100356, Delta

## COC(=O)/C=C/C(=O)NNC(=O)CCc1ccccc1C(=O)N[C@H](C)c1cccc2ccccc12 [Compound 7, methyl(R,E)-4-(2-(3-(2-((1-(naphthalen-1 yl)ethyl)carbamoyl)phenyl)propanoyl)hydrazineyl)-4-oxobut-2-enoate]
[1]
  Virus Titer: 2.5 CCID50/mL (Log10) and 3.0 CCID50/mL (Log10)
[2]
  Virus Titer: 4.5 CCID50/mL (Log10) and 4.7 CCID50/mL (Log10) and 5.0 CCID50/mL (Log10)
[3]
  Percent Cytopathic Effect (Neutral Red): 49.9% and 76.0% and 99.5% and 99.2%
